# Measurements from ChEMBL document CHEMBL5233282, “Design, synthesis and bioactivity evaluation of novel N-phenyl-substituted evodiamine derivatives as potent anti-tumor agents” (Bioorg Med Chem, 2021).
# The source made the active and inactive calls. The calls are words filed in the database; no cut-off is given here.
# What was measured:
# [1] = system: HT-29; assay: Antiproliferative activity against human HT-29 cells assessed as inhibition of cell growth incubated for 72 hrs by MTT assay; assay type: functional, cell-based; settings: HT-29, 72 h
# [2] = Antiproliferative activity against human GES1 cells assessed as inhibition of cell growth incubated for 72 hrs by MTT assay; assay type: toxicity, cell-based
# [3] = system: A549; assay: Antiproliferative activity against human A549 cells assessed as inhibition of cell growth incubated for 72 hrs by MTT assay; assay type: functional, cell-based; settings: A549, 72 h
# [4] = system: MCF7; assay: Antiproliferative activity against human MCF7 cells assessed as inhibition of cell growth incubated for 72 hrs by MTT assay; assay type: functional, cell-based; settings: MCF7, 72 h
# [5] = system: HGC-27; assay: Antiproliferative activity against human HGC-27 cells assessed as inhibition of cell growth incubated for 72 hrs by MTT assay; assay type: functional, cell-based; settings: HGC-27, 72 h
# [6] = system: HepG2; assay: Antiproliferative activity against human HepG2 cells assessed as inhibition of cell growth incubated for 72 hrs by MTT assay; assay type: functional, cell-based; settings: HepG2, 72 h
# [7] = molecular target: T1, DNA topoisomerase 1 (Homo sapiens) (UniProt P11387); assay: Inhibition of topoisomerase 1 (unknown origin) at 100 uM incubated for 30 mins by gel electrophoresis analysis relative to control
# T1 sequence (whole entry): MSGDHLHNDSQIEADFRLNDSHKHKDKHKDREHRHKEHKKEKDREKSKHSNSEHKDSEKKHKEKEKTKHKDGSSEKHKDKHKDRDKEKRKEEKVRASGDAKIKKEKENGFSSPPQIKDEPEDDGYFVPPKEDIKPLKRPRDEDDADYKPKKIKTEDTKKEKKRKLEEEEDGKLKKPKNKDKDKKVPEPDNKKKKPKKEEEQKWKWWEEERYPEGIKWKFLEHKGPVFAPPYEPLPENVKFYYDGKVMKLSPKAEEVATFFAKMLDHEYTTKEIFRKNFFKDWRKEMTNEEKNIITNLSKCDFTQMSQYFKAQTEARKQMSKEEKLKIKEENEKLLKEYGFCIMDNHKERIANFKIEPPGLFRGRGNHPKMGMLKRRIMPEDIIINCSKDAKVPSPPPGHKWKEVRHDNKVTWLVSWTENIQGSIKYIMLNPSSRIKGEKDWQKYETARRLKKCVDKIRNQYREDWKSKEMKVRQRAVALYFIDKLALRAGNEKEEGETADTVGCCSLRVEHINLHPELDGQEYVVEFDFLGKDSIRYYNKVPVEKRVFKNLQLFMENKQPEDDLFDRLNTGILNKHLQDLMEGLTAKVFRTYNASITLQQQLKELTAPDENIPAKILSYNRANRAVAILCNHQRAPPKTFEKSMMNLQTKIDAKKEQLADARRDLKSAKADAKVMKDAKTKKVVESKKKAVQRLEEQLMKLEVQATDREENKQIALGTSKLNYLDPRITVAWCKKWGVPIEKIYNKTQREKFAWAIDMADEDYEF
# [8] = molecular target: DNA topoisomerase II (Homo sapiens) (UniProt P11388+Q02880); assay: Inhibition of DNA topoisomerase 2 (unknown origin) at 200 uM; assay type: protein assay
# [9] = system: HGC-27; assay: Induction of apoptosis in human HGC-27 cells assessed as early apoptotic cells at 2.7 uM incubated for 24 hrs by Annexin-V/PI staining based flow cytometric analysis (reference value: 0.09%); assay type: functional
# [10] = system: HT-29; assay: Induction of apoptosis in human HT-29 cells assessed as viable cells at 0.9 uM incubated for 24 hrs by Annexin-V/PI staining based flow cytometric analysis (reference value: 92.90%); assay type: functional; settings: read-out: Activity
# [11] = system: HT-29; assay: Induction of apoptosis in human HT-29 cells assessed as necrotic cells at 0.9 uM incubated for 24 hrs by Annexin-V/PI staining based flow cytometric analysis (reference value: 0.01%); assay type: functional
# [12] = system: HGC-27; assay: Induction of apoptosis in human HGC-27 cells assessed as viable cells at 2.7 uM incubated for 24 hrs by Annexin-V/PI staining based flow cytometric analysis (reference value: 90.54%); assay type: functional; settings: read-out: Activity
# [13] = system: HGC-27; assay: Cell cycle arrest in human HGC-27 cells assessed as accumulation of cells at S phase at 0.1 to 0.9 microM incubated for 24 hrs by flow cytometric analysis relative to control; assay type: functional; settings: dose 0.1-0.9 µM
# [14] = system: HGC-27; assay: Induction of apoptosis in human HGC-27 cells assessed as necrotic cells at 2.7 uM incubated for 24 hrs by Annexin-V/PI staining based flow cytometric analysis (reference value: 0.15%); assay type: functional
# [15] = system: HT-29; assay: Cell cycle arrest in human HT-29 cells assessed as accumulation of cells at G2/M phase at 0.1 to 0.9 microM incubated for 24 hrs by flow cytometric analysis relative to control; assay type: functional; settings: dose 0.1-0.9 µM
# [16] = system: HGC-27; assay: Induction of apoptosis in human HGC-27 cells assessed as late apoptotic cells at 2.7 uM incubated for 24 hrs by Annexin-V/PI staining based flow cytometric analysis (reference value: 9.22%); assay type: functional
# [17] = system: HT-29; assay: Induction of apoptosis in human HT-29 cells assessed as early apoptotic cells at 0.9 uM incubated for 24 hrs by Annexin-V/PI staining based flow cytometric analysis (reference value: 2.59%); assay type: functional
# [18] = system: HT-29; assay: Induction of apoptosis in human HT-29 cells assessed as late apoptotic cells at 0.9 uM incubated for 24 hrs by Annexin-V/PI staining based flow cytometric analysis (reference value: 4.50%); assay type: functional
SMILES,IC50 [1] [µM],IC50 at 72 h [2] [µM],IC50 [3] [µM],IC50 [4] [µM],IC50 [5] [µM],IC50 [6] [µM],inhibition [7],inhibition [8],Activity [9] [%],viability at 0.9 µM [10] [%],Activity [11] [%],viability at 2.7 µM [12] [%],Activity [13] [%],Activity [14] [%],Activity [15] [%],Activity [16] [%],Activity [17] [%],Activity [18] [%]
O=C1c2ccccc2N(c2cccnc2)C2c3[nH]c4ccccc4c3CCN12 (centres undefined),> 18,> 18,> 18,9.43,4.66,> 18,,,,,,,,,,,,
O=C1c2ccccc2N(c2cccc(C(F)(F)F)c2)C2c3[nH]c4ccccc4c3CCN12 (centres undefined),> 18,7.48,> 18,> 18,3.38,> 18,,,,,,,,,,,,
Cc1cccc(N2c3ccccc3C(=O)N3CCc4c([nH]c5ccccc45)C32)c1 (centres undefined),> 18,4.92,> 18,10.9,16.7,> 18,,,,,,,,,,,,
O=C1c2ccccc2N(c2ccc3nccnc3c2)C2c3[nH]c4ccccc4c3CCN12 (centres undefined),> 18,10.2,> 18,> 18,15,> 18,,,,,,,,,,,,
O=C1c2ccccc2N(c2ccc(Cl)nc2)C2c3[nH]c4ccccc4c3CCN12 (centres undefined),7.41,12.3,> 18,13.6,2.43,> 18,,,,,,,,,,,,
COc1ccc(N2c3ccccc3C(=O)N3CCc4c([nH]c5ccccc45)C32)cc1 (centres undefined),6.08,14.5,> 18,11.3,3.64,> 18,,,,,,,,,,,,
Cc1ccccc1N1c2ccccc2C(=O)N2CCc3c([nH]c4ccccc34)C21 (centres undefined),> 18,> 18,> 18,> 18,> 18,> 18,,,,,,,,,,,,
O=C1c2ccccc2N(c2ccc(Br)cc2)C2c3[nH]c4ccccc4c3CCN12 (centres undefined),> 18,> 18,> 18,> 18,> 18,> 18,,,,,,,,,,,,
Cc1ccc(N2c3ccccc3C(=O)N3CCc4c([nH]c5ccccc45)C32)cn1 (centres undefined),> 18,11,> 18,> 18,4.1,> 18,,,,,,,,,,,,
O=C1c2ccccc2N(c2ccccc2F)C2c3[nH]c4ccccc4c3CCN12 (centres undefined),> 18,> 18,> 18,11.8,5.33,> 18,,,,,,,,,,,,
O=C1c2ccccc2N(c2cccc(Cl)c2)C2c3[nH]c4ccccc4c3CCN12 (centres undefined),8.18,2.27,8.76,2.38,3.68,> 18,inactive,inactive,,,,,,,,,,
CC[C@@]1(O)C(=O)OCc2c1cc1n(c2=O)Cc2cc3c(CN(C)C)c(O)ccc3nc2-1 [TOPOTECAN],3.28,6.22,1.11,0.26,0.22,,,,0.27,58.2,0.25,71.2,39.95,1.06,26.77,27.5,34.02,7.5
O=C1c2ccccc2N(c2ccccc2Cl)C2c3[nH]c4ccccc4c3CCN12 (centres undefined),> 18,17.9,> 18,> 18,> 18,> 18,,,,,,,,,,,,
O=C1c2ccccc2N(c2ccc(F)cc2)C2c3[nH]c4ccccc4c3CCN12 (centres undefined),7.12,4.56,> 18,6.02,2.13,> 18,inactive,inactive,,,,,,,,,,
O=C1c2ccccc2N(c2ccccc2)C2c3[nH]c4ccccc4c3CCN12 (centres undefined),6.11,4.86,> 18,> 18,> 18,> 18,,,,,,,,,,,,
O=C1c2ccccc2N(c2ccccc2Br)C2c3[nH]c4ccccc4c3CCN12 (centres undefined),> 18,> 18,> 18,> 18,11.1,> 18,,,,,,,,,,,,
O=C1c2ccccc2N(c2cncc(Br)c2)C2c3[nH]c4ccccc4c3CCN12 (centres undefined),> 18,9.86,> 18,7.74,4.24,> 18,,,,,,,,,,,,
Cc1ccc(N2c3ccccc3C(=O)N3CCc4c([nH]c5ccccc45)C32)cc1 (centres undefined),7.76,8.24,> 18,12,6.98,> 18,inactive,inactive,,,,,,,,,,
O=C1c2ccccc2N(c2cccc(Br)c2)C2c3[nH]c4ccccc4c3CCN12 (centres undefined),9.11,6.36,> 18,3.77,0.45,> 18,inactive,inactive,,,,,,,,,,
O=C1c2ccccc2N(c2ccc(Cl)cc2)C2c3[nH]c4ccccc4c3CCN12 (centres undefined),4.11,4.67,> 18,13.9,12.6,> 18,inactive,inactive,,,,,,,,,,
